Data from patent publication US6534632B2, “Sialidase localized in plasma membrane DNA coding for the same” (priority 1997, dated 2003).
Like-named read-outs stand apart in the source and are kept apart here.

Columns and labels:
Type in all cases: biochemical
[1] = target: T1, bovine membrane-bound sialidase (Bos taurus, UniProt O97859); assay: Inhibition, activation and stabilization of purified bovine membrane-bound sialidase; conditions: for Inhibition of the sialidase: in words; for Inhibition (%): 100 minus residual activity (%)
T1 construct: the sialidase activity was purified by more than 100,000 times from the bovine brain particulate fraction; from tissue; host or cells: bovine brain (particulate/membrane fraction, detergent-solubilized, 10-step chromatographic purification)
T1 sequence (O97859 1-428): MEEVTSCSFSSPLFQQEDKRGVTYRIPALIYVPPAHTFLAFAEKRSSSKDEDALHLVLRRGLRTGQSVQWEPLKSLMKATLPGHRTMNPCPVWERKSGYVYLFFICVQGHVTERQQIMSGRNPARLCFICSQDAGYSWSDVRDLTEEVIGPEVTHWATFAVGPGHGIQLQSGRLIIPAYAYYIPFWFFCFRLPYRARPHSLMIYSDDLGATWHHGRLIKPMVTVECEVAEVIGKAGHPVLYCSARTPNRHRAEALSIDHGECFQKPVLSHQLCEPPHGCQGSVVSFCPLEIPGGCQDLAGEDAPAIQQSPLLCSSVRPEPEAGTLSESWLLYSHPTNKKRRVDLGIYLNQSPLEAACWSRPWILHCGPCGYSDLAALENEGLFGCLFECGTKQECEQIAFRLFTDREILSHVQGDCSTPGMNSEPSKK
Method: (§1) A reaction system (0.2 ml) contained 50-100 nmol of sialic acid-bound saccharide substrate, 0.2 mg of bovine serum albumin, […] of sodium acetate buffer (pH 4.6), 0.2 mg of Triton X-100, and an enzyme fraction, and a substrate consisting mainly of bovine brain mixed gangliosides (Sigma, Type II) was used.
(§2) A reaction mixture having the aforementioned composition was incubated at 37° C. for 15-60 minutes, and the reaction was stopped by quick freezing. The released sialic acid was quantitated by the thiobarbituric acid method of Warren (Warren L., J. Biol. Chem. 234, 1971-1975, 1959) at 549 nm and 532 nm. In Steps 1, 2, and 7 explained below, the quantitation was performed by the same method after the reaction product was passed through an AGX-2 ion exchange mini column. The amount of the sialic acid (nmol) released per hour was defined as 1 unit. When a synthetic substrate, 4-methylumbelliferyl N-acetylneuraminic acid (4MU-NeuAc) was used as the sialic acid-bound saccharide substrate, Triton X-100 was excluded from the reaction system, and released 4-methylumbelliferone was quantitated by a fluorospectrophotometer.
The numerical values each represent 100 minus (residual activity (%) in the presence of inhibitor).

[2] = target: T1, bovine membrane-bound sialidase; assay: Sialidase activity of purified bovine membrane-bound sialidase for various substrates (substrate specificity); conditions: for Hydrolysis activity (%): relative activity, activity for GD3-ganglioside defined as 100, purified enzyme
Method: as §1, §2
The results of investigations about the activity of the enzyme of the present invention for various substrates are shown in Table 2. The numerical values represent relative activity when the activity for the GD3-ganglioside is defined to be 100.

[3] = target: T1, bovine membrane-bound sialidase; assay: Inhibition, activation and stabilization of purified bovine membrane-bound sialidase; conditions: in words

Row | Compound | Substrate specificity: whether the sialidase acts on the substrate [2] | Hydrolysis activity (%) [2] | other results
1 | Triton X-100 |  |  | Sialidase activity in the presence of surface active agent ([1]; 0.1 to 0.2% of Triton X-100): highly active
2 | [Cu+2] [Cu^2+] |  |  | Inhibition of the sialidase [1]: strongly inhibited
3 | GM1-ganglioside | does not substantially act on | 1% | 
4 | CC(=O)N[C@H]1[C@H]([C@H](O)[C@H](O)CO)OC(Oc2ccc3c(C)cc(=O)oc3c2)(C(=O)O)C[C@@H]1O (some centres unmarked) [4-MUNeuAc, 4-methylumbelliferyl N-acetylneuraminic acid] | weakly acts on | 25% | 
5 | O[C@H](CS)[C@H](O)CS (racemic) [dithiothreitol] |  |  | Stabilization of the sialidase [3]: stabilized
6 | GM2-ganglioside | does not substantially act on | 3% | 
7 | Fetuin: glycoprotein substrate | does not substantially act on | 2% | 
8 | CC(=O)N[C@H]1[C@H]([C@H](O)[C@H](O)CO)O[C@@](O[C@H]2[C@@H](O)[C@@H](CO)O[C@@H](O[C@H]3[C@H](O)[C@@H](O)C(O)O[C@@H]3CO)[C@@H]2O)(C(=O)O)C[C@@H]1O (stereo partly drawn) [α2-3 syalyllactose, α2-3 sialyllactose] | did not act on | 11% | Substrate specificity: whether the sialidase acts on the substrate ([2]; listed as α2-3 sialyllactose): weakly acts on
9 | O=C(O)c1cc[c]([Hg][OH])cc1 [4-Hydroxy mercury benzoate] |  |  | Inhibition of the sialidase [1]: strongly inhibited; Inhibition (%) ([1]; inhibitor 50 μM): 92%
10 | CC(=O)N[C@H]1[C@H]([C@H](O)[C@H](O)CO)OC(C(=O)O)=C[C@@H]1O [2-deoxy-2,3-dehydro-N-acetylneuraminic acid] |  |  | Stabilization of the sialidase [3]: stabilized; Inhibition of the sialidase [1]: weakly inhibited; Inhibition (%) ([1]; inhibitor 0.2 mM): 45%
11 | [Cl][Cu][Cl] [CuCl2] |  |  | Inhibition (%) ([1]; inhibitor 1 mM): 95%
12 | OCC(O)CO [glycerol] |  |  | Stabilization of the sialidase [3]: stabilized

The next lines start with results.

Row | Substrate specificity: whether the sialidase acts on the substrate [2] | Hydrolysis activity (%) [2] | Compound | other results
13 | acts on | 56% | GD1a-ganglioside | 
14 | does not substantially act on | 2% | Orosomucoid: glycoprotein substrate | 
15 | acts on | 100% | GD3-ganglioside | 
16 | acts on | 62% | GM3-ganglioside | 
